Target: T1, A2BARs (rat cortical neurons) (Rattus norvegicus, UniProt P29276)
T1 construct: gene Adora2b; native receptor in membranes of primary cortical neurons from day-18 rat embryos
T1 sequence (P29276 1-332): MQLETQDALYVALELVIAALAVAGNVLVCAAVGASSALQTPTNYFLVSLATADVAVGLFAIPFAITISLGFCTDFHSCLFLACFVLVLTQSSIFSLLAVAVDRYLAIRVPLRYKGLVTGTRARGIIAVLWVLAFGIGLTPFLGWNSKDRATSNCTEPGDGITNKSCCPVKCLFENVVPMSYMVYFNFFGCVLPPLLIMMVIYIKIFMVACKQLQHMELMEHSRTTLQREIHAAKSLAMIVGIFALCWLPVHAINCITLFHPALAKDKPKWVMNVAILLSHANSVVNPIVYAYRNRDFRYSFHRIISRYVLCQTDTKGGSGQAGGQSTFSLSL
Assay: radioligand saturation binding, membranes
Conditions: rat cortical neuron membranes, no PEMF; labelled compound
Source text: radioligand saturation binding, membranes on A2BARs (rat cortical neurons)

## CCCn1c(=O)c2[nH]c(-c3cc(OCC(=O)Nc4ccc5c(c4)OCO5)nn3C)nc2n(CCC)c1=O [[3H]-MRE 2029F20, [^3H]-N-benzo [1], [3]dioxol-5-yl-2-[5-(2,6-dioxo-1,3-dipropyl-2,3,6,7-tetrahydro-1H-purin-8-yl)-1-methy-1H-pyrazol-3-yl-oxy]-acetamide]
  Kd: 1.52 ± 0.11 nM

— article PMC3382599, “The Anti-Tumor Effect of A3 Adenosine Receptors Is Potentiated by Pulsed Electromagnetic Fields in Cultured Neural Cancer Cells” (PLoS ONE, 2012)
